Legend:
Type in all cases: cell-based, mouse
primary brown adipocytes = test: Thermogenic gene expression (qRT-PCR) in primary brown adipocytes
Description: RNA was extracted from cultured cells or frozen tissue samples using TRIzol (Invitrogen), purified with Qiagen RNAeasy minicolums and reverse transcribed using High Capacity cDNA Reverse Transcription kit (Applied Biosystems). Resulting cDNA was analyzed by RT-qPCR. Briefly, 25 ng of cDNA and […] of each primer were mixed with SYBR® GreenER™ PCR Master Mix (Invitrogen). Reactions were performed in 384-well format using an ABI PRISM® 7900HT instrument (Applied Biosystems). Relative mRNA levels were calculated using the comparative CT method normalized to cyclophilin.

primary white adipocytes = test: Cellular oxygen consumption rate (XF24 Extracellular Flux Analyzer, Seahorse) of primary adipocytes; settings: for uncoupled respiration and maximal respiration potential: 24 hour treatment, norepinephrine 100 nM, peptides 100 ng/mL, SeaHorse (FIG. 8D)
Description: The cellular oxygen consumption rate (OCR) of primary adipocytes was determined using an XF24 Extracellular Flux Analyzer (Seahorse Bioscience). […] Twenty-four hours later, adipocyte culture medium was changed to DMEM lacking NaHCO3 but containing 10 mM glucose, 1 mM pyruvate and the treatment chemicals. The uncoupled and maximal OCRs were determined using […] (carbonyl cyanide p-trifluoromethoxyphenylhydrazone), respectively. Complex-1-dependent respiration was inhibited with 3 μM rotenone. Ex vivo tissue respiration was measured using a Clark electrode (Strathkelvin Instruments) as described in Cohen et al. (2014) Cell 156:304-316. Freshly isolated tissues were briefly minced and transferred to the electrode chamber containing a respiration buffer consisting of 1×DPBS (Delbecco's phosphate-buffered saline), 2% BSA, 25 mM glucose and 1 mM pyruvate. Oxygen consumption values were normalized to tissue weight.

UCP1 = UCP1 protein levels by western blotting in primary adipocytes
Description: Cells were homogenized in a lysis buffer containing 50 mM Tris (pH 7.4), 500 mM NaCl, 1% NP40, 20% glycerol, 5 mM EDTA and 1 mM PMSF, supplemented with protease and phosphatase inhibitor cocktails (Roche). The homogenates were centrifuges at 13,000 rpm for 10 min and the supernatants were used as whole cell lysates. Protein concentration was determined by Bio-Rad Bradford assay and 50 μg of proteins were used in each SDS-PAGE run. PVDF membrane was blotted with UCP1 antibody (Abeam) in TBS containing 0.05% Tween and 5% BSA. For secondary antibody incubation, TBS-T containing 5% milk was used. ECL western blotting substrates from Pierce were used for visualization of the results.
Cells were homogenized in a lysis buffer containing 50 mMTris (pH 7.4), 500 mM NaCl, 1% NP40, 20% glycerol, 5 mM EDTA and 1 mM phenylmethylsulphonyl fluoride (PMSF) supplemented with protease and phosphatase inhibitor cocktails (Roche). The homogenates were centrifuged at 13,000 r.p.m. for 10 min, and the supernatants were used as whole-cell lysates. Protein concentration was determined by Bio-Rad protein assay, and […] protein lysate was separated in each SDS-PAGE lane. The separated proteins were transferred to a polyvinylidene difluoride (PVDF)membrane, which was blotted with antibodies in TBS containing 0.05% Tween (TBS-T) and 5% BSA. For secondary antibody incubation. TBS-T containing 5% milk was used. Enhanced chemiluminescence (ECL) western blotting substrates (Pierce) were used for visualization of the results.

PTH (1-34): Synthetic peptide rat PTH(1-34) (Ala32-Phe65; Catalog No. H-5460), purchased from Bachem
thermogenic gene expression (primary brown adipocytes; 100 ng ml^−1 peptide, 2 h, primary brown adipocytes (FIG. 20D)): stimulated thermogenic gene expression | thermogenic effects (thermogenic gene expression) (primary brown adipocytes; 1 μg/ml, primary brown adipocytes (FIG. 9A)): thermogenic effects | oxygen consumption, including basal, uncoupled and maximal respiration (primary white adipocytes; 100 nM NE, 100 ng ml^−1 PTHrP or PTH, 24 h (FIG. 23C)): significantly raised oxygen consumption | uncoupled respiration and maximal respiration potential (primary white adipocytes): significantly elevate | uncoupled respiration and maximal respiration potential (primary white adipocytes; listed as PTH): powerful inducers | UCP1 protein levels (UCP1; 100 nM NE, 100 ng ml^−1 PTHrP or PTH, 24 h, primary white and brown adipocytes (FIG. 23A-23B)): comparably increased UCP1 protein levels | UCP1 protein levels (UCP1; 24 hour treatment, norepinephrine 100 nM, peptides 100 ng/mL, western blotting (FIG. 8D)): significantly increased
